Columns and labels:
[1] = tested on: MRSA USA300; test: In vivo MRSA mice wound model (blue light, H2O2, fusidic acid); set-up: species or system Balb/c mice
Description: To initiate the formation of a skin wound, five groups (n=5) of eight-week old female Balb/c mice (obtained from Harlan Laboratories, Indianapolis, Ind., USA) were disinfected with ethanol (70%) and shaved on the middle of the back (approximately a one-inch by one-inch square region around the injection site) one day prior to infection as described from a reported procedure (3). To prepare the bacterial inoculum, an aliquot of overnight culture of MRSA USA300 was transferred to fresh Tryptic soy broth and shaken at 37° C. until an OD600 value of ˜1.0 was achieved. The cells were centrifuged, washed once with PBS, re-centrifuged, and then re-suspended in PBS. Mice subsequently received an intradermal injection (40 μL) containing 2.40×10^9 CFU/mL MRSA USA300. An open wound formed at the site of injection for each mouse, ˜60 hrs post-infection.
One group of mice was left untreated (negative control). Each group of mice receiving a particular treatment regimen was housed separately in a ventilated cage with appropriate bedding, food, and water. Mice were checked twice daily during infection and treatment to ensure no adverse reactions were observed. Mice were treated twice daily (once every 12 hours) for three days, before they were humanely euthanized via CO2 asphyxiation 12 hours after the last dose was administered. The region around the skin wound was lightly swabbed with ethanol (70%) and excised. The tissue was subsequently homogenized in PBS. The homogenized tissue was then serially diluted in PBS before plating onto mannitol salt agar plates. Plates were incubated for at least 19 hours at 37° C. before viable MRSA CFU/mL were counted for each group. Outlier was removed based upon the Dixon Q Test.

[2] = tested on: MRSA USA300
Description: Thereafter, an aliquot (20 μL) of the bacterial suspension was transferred onto a glass slide. Samples were exposed to blue light at different time-lengths and variable light intensities. […] The solutions were cultured for 20 min. The solution was serially diluted in sterile PBS and transferred to LB plates in order to enumerate the viable number of MRSA colony-forming units (CFUs). […] Data are presented as viable MRSA CFU/mL and percent survival of MRSA CFU/mL in the treated groups.
Additive was defined as an FIC index of 1. Antagonism was defined as an FIC index of >4.

[3] = tested on: stationary-phase MRSA; test: Time-killing assay in PBS with or without pulsed laser (CFU enumeration); format: cell-based, S. aureus
Description: To quantify viable bacterial cells, CFU experiments were performed. 100 μl of sample analyte was transferred into a 96-well plate and then three or four ten-fold serial dilution achieved by transferring 20 μl bacterial culture into 180 μl 1×PBS in the next dilution row. After serial dilution, an aliquot (4 μl) from each well was spotted onto sterile TSA plates. After incubating the plates overnight (˜18 hours) at 37° C., the colonies were enumerated, and cell number was calculated in CFU/ml. For each CFU enumeration experiment, three independent replicates were applied.
Stationary-phase MRSA was prepared, washed and resuspended in 1×PBS at two-times of its original concentration. […] After laser treatment, the droplets were resuspended into 200 μl of 1×PBS (1:40 dilution) supplemented with antibiotics at different concentrations in a mini centrifuge tube (89166-278, VWR international). For example, daptomycin was added into MRSA solution after laser treatment at desired concentration of 0×MIC, 5×MIC, 10×MIC, 30×MIC, or 100×MIC supplemented with 50 μg/ml CaCl2). Corresponding groups without laser treatment were also conducted for comparison. These tubes were incubated within an orbital incubator (37° C., 200 rpm) for different incubation time. At each specific time point, 40 μl of aliquot from each group was transferred to a 96-well plate for follow-up CFU enumerating assay. In the case of tobramycin, additional antibiotic washing by 1×PBS was performed before the CFU experiment to avoid antibiotic interference. For time-killing assay in fresh human whole blood, similar protocol was followed as above, except that 1×PBS was replaced by fresh human whole blood and the initial stationary-phase MRSA solution was diluted by ten times with a concentration of ˜10^7 CFU/ml.

[4] = tested on: S. aureus (ATCC 6538) biofilm; conditions: blue light plus low-concentration H2O2
[5] = agent alone, topical, twice a day for three days

OO [H2O2, hydrogen peroxide]
pus formation in wound after sacrifice [1, 5]: didn't show this sign | CFU reduction in wound tissue compared to the control group ([1]; blue light (24 J/cm^2) and 13.2 mM H2O2, twice daily for three days): around 1.5 log | CFU reduction in wound tissue compared to fusidic acid-treated group ([1]; blue light and H2O2-treated group): around one more log reduction | pus formation in wound after sacrifice ([1]; blue light plus H2O2): didn't show this sign | MRSA killing (CFUs) ([2]; 13.2 mM H2O2 combined with blue light 108 J/cm^2, ~10^7 MRSA): eradicated all MRSA | MRSA scavenged ([2]; 5-min culture with H2O2 after 2-min blue light exposure (24 J/cm^2)): 60% | antimicrobial efficiency relative to 2-min blue light alone ([2]; H2O2 20 min, 13.2 mM after 2-min blue light (24 J/cm^2)): Two times antimicrobial efficiency | FIC index ([2]; blue light and H2O2 against MRSA, ≤0.5 is synergy, according to estimation): ≤ 0.38 | killing of stationary-phase MRSA ([3]; 220 μM with laser treatment, within 2 hours): 4 log | killing of stationary-phase MRSA ([3]; alone, at 22 mM high concentration): minor killing | MRSA killed inside biofilm [4]: 92%

CC(=O)O[C@H]1C[C@@]2(C)[C@@H](C[C@@H](O)[C@H]3[C@@]4(C)CC[C@@H](O)[C@@H](C)[C@@H]4CC[C@@]32C)/C1=C(\CCC=C(C)C)C(=O)O [fusidic acid]
pus formation in wound after sacrifice [1, 5]: showed the formation of pus
